The source of these data is ChEMBL document CHEMBL5113503, “Synthesis and biological evaluation of 4-(4-aminophenyl)-6-methylisoxazolo[3,4-b] pyridin-3-amine covalent inhibitors as potential agents for the treatment of acute myeloid leukemia” (Bioorg Med Chem, 2022).

For one series, the system named is MOLM-13. The series is described as follows: Antiproliferative activity against human MOLM-13 cells harboring FLT3-ITD mutant assessed as cell growth inhibition measured after 72 hrs by CCK8 assay. The note with it: MOLM-13, 72 h.
Series [1] deals with MV4-11. Kind of series: Antiproliferative activity against human MV4-11 cells harboring FLT3-ITD mutant assessed as cell growth inhibition measured after 72 hrs by CCK8 assay. The following applies: MV4-11, 72 h.
Another series deals with HepG2. Kind of series: Antiproliferative activity human HepG2 cells assessed as cell growth inhibition measured after 72 hrs by CCK8 assay. The note with it: HepG2, 72 h. A general note: Tetrazolium dyes change colour on reduction, which living cells bring about.
Series [2] can be described thus: Cytotoxicity against HUVEC cells assessed as cell growth inhibition measured after 72 hrs by CCK8 assay. It counts as toxicity, cell-based. The following applies: human.
Series [3] concerns MV4-11. Kind of series: Induction of cell cycle arrest in human MV4-11 cells assessed as accumulation at G0/G1 phase at 0.5 uM measured after 24 hrs by flow cytometry (reference value: 64.29 %). It counts as functional.
For series [4], the system named is MV4-11. Kind of series: Induction of apoptosis in human MV4-11 cells assessed as late apoptotic cells at 2.5 uM measured after 48 hrs by Annexin V-FITC/PI double staining based flow cytometric analysis (reference value: 12.03 %). It is filed as functional. (A flow cytometer gives signals particle by particle.)
The test system of series [5] is MV4-11. The series is described as follows: Induction of apoptosis in human MV4-11 cells assessed as necrotic cells at 2.5 uM measured after 48 hrs by Annexin V-FITC/PI double staining based flow cytometric analysis (reference value: 5.67 %). It is filed as functional.
Series [6] deals with MV4-11. The series is described as follows: Induction of apoptosis in human MV4-11 cells assessed as late apoptotic cells at 0.5 uM measured after 48 hrs by Annexin V-FITC/PI double staining based flow cytometric analysis (reference value: 12.03 %). It counts as functional.
Series [7] deals with MV4-11. Kind of series: Induction of apoptosis in human MV4-11 cells assessed as necrotic cells at 0.5 uM measured after 48 hrs by Annexin V-FITC/PI double staining based flow cytometric analysis (reference value: 5.67 %). It is filed as functional.
Series [8] deals with MV4-11. The series is described as follows: Induction of apoptosis in human MV4-11 cells assessed as late apoptotic cells at 0.1 uM measured after 48 hrs by Annexin V-FITC/PI double staining based flow cytometric analysis (reference value: 12.03 %). It is filed as functional.
The test system of series [9] is MV4-11. Kind of series: Induction of apoptosis in human MV4-11 cells assessed as necrotic cells at 0.1 uM measured after 48 hrs by Annexin V-FITC/PI double staining based flow cytometric analysis (reference value: 5.67 %). It counts as functional.

As for `C=CC(=O)Nc1ccc(NC(=O)Nc2ccc(-c3cc(C)nc4noc(N)c34)cc2)cc1`, the IC50 (usually the midpoint of a concentration-inhibition curve) with MOLM-13 is 507 nM; in the series on MV4-11 [1], 325 nM; with HepG2, more than 10000 nM. Moreover, the IC50 at 72 h in series [2] is more than 10000 nM. The Activity in the series with MV4-11 [3] came to 71.37%; in the series with MV4-11 [4], 35.01%; with MV4-11 [5], 9.56%; with MV4-11 [6] it was 14.58%; in the series with MV4-11 [7], 5.47%; in the series on MV4-11 [8], 11.88%. In addition, the Activity with MV4-11 [9] came out at 4.51%.
